Test results reported in PubChem BioAssay (NCI).
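Assay format: 96-well plates, 48-hour exposure. TGI: concentration producing complete growth inhibition.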

How the values were obtained:
Experiment in all cases: NCI tumour cell line growth inhibition, 48 h
[1] = system: 786-0 renal
[2] = system: A549 NSCLC
[3] = system: ACHN renal
[4] = system: BT-549 breast
[5] = system: CAKI-1 renal
[6] = system: CCRF-CEM leukemia
[7] = system: COLO 205 colon
[8] = system: DU-145 prostate
[9] = system: EKVX NSCLC
[10] = system: HCC-2998 colon
[11] = system: HCT-116 colon
[12] = system: HCT-15 colon
[13] = system: HL-60(TB) leukemia
[14] = system: HOP-62 NSCLC
[15] = system: HOP-92 NSCLC
[16] = system: HS 578T breast
[17] = system: HT29 colon
[18] = system: IGROV1 ovarian
[19] = system: K-562 leukemia
[20] = system: KM12 colon
[21] = system: LOX IMVI melanoma
[22] = system: M14 melanoma
[23] = system: MALME-3M melanoma
[24] = system: MCF7 breast
[25] = system: MDA-MB-231 breast
[26] = system: MDA-MB-435
[27] = system: MDA-N
[28] = system: MOLT-4 leukemia
[29] = system: NCI-H226 lung
[30] = system: NCI-H23 lung
[31] = system: NCI-H460 lung
[32] = system: NCI-H522 lung
[33] = system: NCI/ADR-RES ovarian
[34] = system: OVCAR-3 ovarian
[35] = system: OVCAR-4 ovarian
[36] = system: OVCAR-5 ovarian
[37] = system: OVCAR-8 ovarian
[38] = system: PC-3 prostate
[39] = system: RPMI-8226 leukemia
[40] = system: SF-268 CNS
[41] = system: SF-295 CNS
[42] = system: SF-539 CNS
[43] = system: SK-MEL-2 melanoma
[44] = system: SK-MEL-28 melanoma
[45] = system: SK-OV-3 ovarian
[46] = system: SN12C renal
[47] = system: SNB-19 CNS
[48] = system: SNB-75 CNS
[49] = system: SR leukemia
[50] = system: SW-620 colon
[51] = system: TK-10 renal
[52] = system: U251 CNS
[53] = system: UACC-257 melanoma
[54] = system: UACC-62 melanoma
[55] = system: UO-31 renal
[56] = system: A498 renal
[57] = system: RXF 393 renal
[58] = system: SK-MEL-5 melanoma
[59] = system: T-47D breast

## Cc1ccccc1S(=O)(=O)Nn1cnc2ccc(S(=O)(=O)Nc3ccc(Cl)cc3)cc2c1=O
[1]
  TGI: > 100 µM
[2]
  TGI: > 100 µM
[3]
  TGI: > 100 µM
[4]
  TGI: > 100 µM
[5]
  TGI: > 100 µM
[6]
  TGI: > 100 µM
[7]
  TGI: > 100 µM
[8]
  TGI: > 100 µM
[9]
  TGI: > 100 µM
[10]
  TGI: > 100 µM
[11]
  TGI: > 100 µM
[12]
  TGI: > 100 µM
[13]
  TGI: > 100 µM
[14]
  TGI: > 100 µM
[15]
  TGI: > 100 µM
[16]
  TGI: > 100 µM
[17]
  TGI: > 100 µM
[18]
  TGI: > 100 µM
[19]
  TGI: > 100 µM
[20]
  TGI: > 100 µM
[21]
  TGI: > 100 µM
[22]
  TGI: > 100 µM
[23]
  TGI: > 100 µM
[24]
  TGI: > 100 µM
[25]
  TGI: > 100 µM
[26]
  TGI: > 100 µM
[27]
  TGI: > 100 µM
[28]
  TGI: > 100 µM
[29]
  TGI: > 100 µM
[30]
  TGI: > 100 µM
[31]
  TGI: > 100 µM
[32]
  TGI: > 100 µM
[33]
  TGI: > 100 µM
[34]
  TGI: > 100 µM
[35]
  TGI: > 100 µM
[36]
  TGI: > 100 µM
[37]
  TGI: > 100 µM
[38]
  TGI: > 100 µM
[39]
  TGI: > 100 µM
[40]
  TGI: > 100 µM
[41]
  TGI: > 100 µM
[42]
  TGI: > 100 µM
[43]
  TGI: > 100 µM
[44]
  TGI: > 100 µM
[45]
  TGI: > 100 µM
[46]
  TGI: > 100 µM
[47]
  TGI: > 100 µM
[48]
  TGI: > 100 µM
[49]
  TGI: > 100 µM
[50]
  TGI: > 100 µM
[51]
  TGI: > 100 µM
[52]
  TGI: > 100 µM
[53]
  TGI: > 100 µM
[54]
  TGI: > 100 µM
[55]
  TGI: > 100 µM

## BrC(c1cccc2ccccc12)c1cccc2ccccc12
[1]
  TGI: 28.2 µM
[56]
  TGI: 31.4 µM
[2]
  TGI: > 100 µM
[3]
  TGI: 52.3 µM
[4]
  TGI: 39.3 µM
[5]
  TGI: 50.1 µM
[8]
  TGI: 26.4 µM
[9]
  TGI: 56.4 µM
[11]
  TGI: 27.8 µM
[12]
  TGI: 42.5 µM
[13]
  TGI: 51.4 µM
[14]
  TGI: 27.1 µM
[15]
  TGI: 28.8 µM
[17]
  TGI: 35.8 µM
[18]
  TGI: 31.8 µM
[19]
  TGI: > 100 µM
[20]
  TGI: 28.8 µM
[21]
  TGI: 30.1 µM
[22]
  TGI: 37.6 µM
[23]
  TGI: 21.1 µM
[25]
  TGI: 28 µM
[26]
  TGI: 21.2 µM
[27]
  TGI: 32.6 µM
[28]
  TGI: > 100 µM
[29]
  TGI: 33.5 µM
[30]
  TGI: 43 µM
[31]
  TGI: 30.4 µM
[32]
  TGI: 32.3 µM
[33]
  TGI: 44.2 µM
[34]
  TGI: 24.2 µM
[35]
  TGI: 36.1 µM
[36]
  TGI: 84.9 µM
[37]
  TGI: 35.1 µM
[38]
  TGI: 54.1 µM
[39]
  TGI: > 100 µM
[57]
  TGI: 27.9 µM
[40]
  TGI: 26.6 µM
[41]
  TGI: 44.7 µM
[43]
  TGI: 30.1 µM
[44]
  TGI: 44.6 µM
[58]
  TGI: 31.4 µM
[46]
  TGI: 27.4 µM
[47]
  TGI: > 100 µM
[48]
  TGI: 29.1 µM
[49]
  TGI: > 100 µM
[50]
  TGI: 45.5 µM
[59]
  TGI: > 100 µM
[51]
  TGI: > 100 µM
[52]
  TGI: 30.6 µM
[53]
  TGI: 53.3 µM
[54]
  TGI: 27.7 µM
[55]
  TGI: > 100 µM
